Laboratory results published in ChEMBL document CHEMBL3988442, “University of Dundee, Small-Polar-MMV Screening Library” (2021).

Assays:
[1] = microbe, parasite or virus in culture; conditions: Mycobacterium tuberculosis, 96 h, read-out: pIC50 (converted)
[2] = microbe, parasite or virus in culture; conditions: Mycobacterium tuberculosis, 72 h, read-out: pIC50 (converted)

SMILES | IC50 [1] [µM] | IC50 [2] [µM]
Cc1ccc(CN2CCOC3(CCN(C(=O)C4CC=CC4)CC3)C2)cc1 | 40.9 | 30.5
O=C1CNc2ncnc(N3CCN(c4ccccc4F)CC3)c2N1 | > 50.1 | > 50.1
CCNC(=O)c1cc2ccc(OC)cc2[nH]1 | > 501 | 283
Cc1ccc(C)c(-n2cc(CN3CC[C@@H](O)C3)c(-c3ccccc3)n2)c1 | > 50.1 | 27.1
Cc1ccc(C(=O)NCCNS(=O)(=O)C(C)C)cc1F | > 501 | 155
CCC(=O)c1cccc(S(=O)(=O)NC(CN)C2CC2)c1 (stereo not given) | > 501 | > 501
CN(Cc1ccc(Oc2ccccc2)cc1)C(=O)CN | 157 | 130
OC(CN1CCCSCC1)c1ccc(F)cc1 (stereo not given) | > 501 | > 501
Cc1csc(CN(C)CCOc2ccccc2)n1 | 20.5 | 23
CC(C)Oc1cccc(C(O)CNC(=O)NCc2cccs2)c1 (stereo not given) | 30.8 | > 50.1
O=C(CC1CC1)N[C@@H]1CN(Cc2ccoc2)C[C@@H]2CCCO[C@@H]21 | > 50.1 | > 50.1
c1ccc(-c2noc(CN3CCCC3)n2)cc1 | 82.1 | 63.9
CCOC(=O)CSc1ccc(-c2nc(CC)no2)cn1 | 27.2 | 29.9
Cn1nccc1C(=O)NC1CCc2ccccc2OC1 (stereo not given) | > 501 | > 501
N#CC1(C(=O)N2CCc3sccc3C2)CCCC1 | 167 | 475
CC(=O)NCc1noc2c1CN(Cc1ccsc1)CC2 | > 50.1 | > 50.1
CC[C@H](N)C(=O)N(C)Cc1cccc(OC(F)(F)F)c1 | > 501 | 199
NC1CCCc2occc21 (stereo not given) | 245 | 142
CCOc1ccc(CC(=O)N2CCN(CC)CC2)cc1 | > 501 | 371
O=C(c1ccc(Cl)o1)N1CCN(Cc2ccco2)CC1 | 69.4 | 102
COc1cc(Oc2ccc(C(F)(F)F)cn2)ccc1CN1CCCC1 | 16.6 | 13.9
CC(c1nc(-c2ccccn2)no1)N1CCSCC1 (stereo not given) | 115 | 86.8
O=C(c1cccc(F)c1)N1CCN(c2nccs2)CC1 | > 501 | 228
O=C(c1[nH]nc(C2CC2)c1Cl)N1CCCC1 | > 50.1 | > 50.1
CCC(CO)(CO)NCc1csc(-c2cccs2)n1 | > 501 | > 501
COc1ccc(NC(=O)NC(C)(C)C(C)(C)O)cc1 | > 501 | 186
CN(C)S(=O)(=O)c1ccc(COC(=O)C2CC2)o1 | 338 | > 501

SMILES | IC50 [1] [µM] | IC50 [2] [µM]
Cc1nn(CC(=O)N(C)C)c(=O)c2ccccc12 | > 501 | > 501
Clc1ccc(Cc2nc(CNCCn3cccn3)cs2)cc1 | 24.8 | 22.8
CCC1CN(C)c2ccccc2CN1CCC(=O)NC (stereo not given) | > 501 | > 501
NCc1cccc(C(=O)NCc2ccco2)c1 | > 501 | > 501
COc1cccc(-c2ccc(CNS(N)(=O)=O)cc2)c1 | 283 | 159
CNC(=O)c1cccc(NCc2ccc(C#N)s2)n1 | 205 | 180
OCCNCCNCc1ccc(-c2ccccc2Cl)o1 | 34.4 | 136
NC1CCCN(Cc2ccccc2)C1 (stereo not given) | > 501 | 262
CN1CCC(CNC(=O)c2cccc(C(F)(F)F)c2)c2ccccc21 (stereo not given) | > 50.1 | 45.5
O=C(NC1CCCOc2ccccc21)c1ccncc1 (stereo not given) | > 501 | > 501
COc1coc(CN2CCCC(CCc3ccccc3C)C2)cc1=O (stereo not given) | 16.2 | 16.1
COc1ccc(N2CCCNCC2)cc1 | 276 | 308
O=C1CCC2(CNC(=O)C3CC3)CCCC=C2N1 (stereo not given) | > 501 | > 501
OCCC1COc2ccc(F)cc2N1 (stereo not given) | > 501 | > 501
Cn1cc(Cn2nc(-c3ccco3)oc2=O)cn1 | > 501 | 187
CN(C1(C#N)CCC1)S(=O)(=O)c1ccccc1 | > 501 | > 501
NC(=O)CN1CCC(OCCCc2ccccc2)C1 (stereo not given) | 369 | 246
COC1(CNC(=O)c2cccc(C#N)c2)CCSC1 (stereo not given) | > 50.1 | > 50.1
Cn1cc(Br)cc1C(=O)NCCCNc1ncccn1 | > 501 | 292
CCC1Oc2c(Cl)cccc2NC1=O (stereo not given) | > 501 | > 501
O=C(CCC1CCCC1)N1CCC(c2cc3ncccc3c(O)n2)CC1 | 0.855 | > 50.1
CC(C)n1nnc(CC(=O)NCC2(c3cccc(F)c3)CCCC2)n1 | > 50.1 | > 50.1
Cc1cc2c(cc1CNC(Cc1cccs1)c1nccs1)OCO2 (stereo not given) | > 50.1 | 24.4
O=c1n(Cc2ccccc2)nnn1-c1cccs1 | 12.7 | 7.64
CN(CCS(=O)(=O)c1cc(Cl)ccc1Cl)CC(N)=O | > 50.1 | 24.7
Cc1ccc(N(CC(=O)c2ccc(Br)cc2)C2=NCCCCC2)cc1 | 23.1 | 11.1
NCc1ccc(NC(=O)c2ccccc2O)cc1 | > 501 | 159

SMILES | IC50 [1] [µM] | IC50 [2] [µM]
O=C(Cn1cccn1)NCCc1ccc2c(c1)OCO2 | > 501 | 251
CCOC(=O)CNC(=O)c1ccc2c(c1)OCCO2 | > 501 | > 501
CC1(C)Oc2ccc(NC(=O)C3CCOC3)cc2O1 (stereo not given) | 261 | 289
O=C(CN(C1=NCCCCC1)c1ccc(Cl)cc1)c1ccccc1 | 22.8 | 20.7
COc1ccc(C)cc1CN1CCN(S(N)(=O)=O)CC1 | 184 | 65.2
Cc1noc(COCC(=O)N2CCCCC2c2nccs2)n1 (stereo not given) | > 50.1 | > 50.1
Cc1nn(CCO)c(NCc2cccc(F)c2)c1C | > 501 | > 501
CCOc1cccc(CCN)n1 | > 501 | 234
CC(C)(N)CN1CCCN(c2ccc(F)cc2)CC1 | 265 | 203
O=C1C=CC(=O)N1Cc1ccc(Cl)cc1 | 174 | 129
CSc1cccc(N(C)C(=O)C(N)c2ccccc2)c1 (stereo not given) | > 501 | 233
CC(C)CSCCSc1nnc(N)[nH]1 | > 501 | 240
O=C(Cc1ccc(-n2cccn2)cc1)N1CCCC(n2cccn2)C1 (stereo not given) | > 50.1 | > 50.1
COCCOCCn1nc(C)c(C#N)c1N | > 501 | > 501
Cc1ccc(S(=O)(=O)N2CCC[C@@H](N)C2)c(C)c1 | 276 | 219
CN1CCCN(C(=O)COc2cccc(Cl)c2)CC1 | > 501 | 283
COc1ccc(OC)c(CNc2nc(C)nn2C)c1 | > 501 | 199
COc1ccc(C(=O)NC2=NCCS2)c(O)c1 | 185 | 456
Cc1cc(C(=O)NCc2cccc(F)c2)no1 | 308 | 52.9
Cn1nc(CN2CCCN(C3CCCC3)CC2)c2c(Cl)cccc21 | 39.8 | 44.8
CC(CNC(=O)c1ccon1)Oc1cccc(Br)c1 (stereo not given) | 32.6 | 25.7
CCOC1COC2(CCN(Cc3ccc4c(c3)OCO4)CC2)C1 (stereo not given) | > 50.1 | > 50.1
CN(CCCN)c1ccccc1F | 129 | 86.1
O=C(CSc1cnn[nH]1)OCc1ccccc1 | > 501 | 67.9
O=C1CC2(CCN(Cc3cccs3)C2)CN1c1cccc(F)c1 (stereo not given) | 18.6 | 1.43
CCC1c2ccsc2CCN1CC(=O)NC (stereo not given) | > 501 | > 501
CCC1(NC(=O)c2coc(S(=O)(=O)N(C)C)c2)CCC1 | > 501 | > 501

SMILES | IC50 [1] [µM] | IC50 [2] [µM]
COCCCNC(=O)c1ccn(-c2ccc(F)cc2)n1 | 154 | 114
CNc1cc(CN(C)Cc2ccccc2)ccn1 | 430 | 227
Cc1nsc(C(=O)NCCc2ccccc2)n1 | 20.9 | 15.5
CCNC(=O)c1cc(N2CCC(COC)CC2)ccn1 | > 501 | 125
Cn1nnnc1NCc1cccc(Cl)c1Cl | > 501 | > 501
Fc1ccc(Cn2ccnn2)c(Cl)c1 | > 501 | > 501
COc1ccc2c(c1)NCC(C)O2 (stereo not given) | 214 | 94.8
FC(F)(F)Sc1ccccc1NCc1nc(C2CC2)no1 | > 50.1 | 15.7
CNC(=O)NC(=O)CSc1ccccc1F | > 501 | > 501
CN(Cc1nnc2n1CCC2)C(=O)c1ccc2c(c1)OCCCO2 | > 50.1 | > 50.1
NCCc1ccc(OCC(F)(F)F)nc1 | 211 | 111
CCCc1nc(C(=O)NCCc2cccnc2)cs1 | 281 | 277
CC(=O)Nc1cccc(-c2ccccc2CCN)c1 | > 50.1 | 49.7
Cc1ccc(C(C)NC(=O)Nc2nccn(C)c2=O)o1 (stereo not given) | > 501 | > 501
Cc1nn(CCCN)c(C)c1Br | > 501 | 266
O=C(CSc1ncnn1-c1ccccc1)N1CCCC1 | 101 | 200
COc1cccc(CN(C)C(=O)c2occc2C)n1 | 279 | 188
CCc1nc(C)c(C(=O)NCC2CCS(=O)(=O)CC2)o1 | > 501 | > 501
CCn1nnnc1SCc1cc(C#N)ccc1F | 87.5 | 42.7
CC(Nc1ccc2c(c1)CCC2)c1nc(C2CC2)no1 (stereo not given) | 0.183 | 0.704
Cc1ccc(C(O)c2cccnc2)cc1 (stereo not given) | > 501 | > 501
CSCCC(=O)NC(C)c1ccc2c(c1)OCCCO2 (stereo not given) | > 501 | > 501
COc1ccc(-n2cc(CNC(=O)c3ccccn3)nn2)cc1 | > 50.1 | > 50.1
Cc1ccc2nnc(C(=O)NCC3CCCC3)nc2c1 | 13.4 | 10.4
